Experiments:
spleen = test: In vivo Fluc activity of FlucmRNA-loaded LNP by in vivo imaging, spleen; conditions: Balb/c mice, 6 hours; for Fluc activity in the spleen, compared with CL15F6 / Fluc activity in the spleen, compared with CL4F6: 0.1 mg mRNA/kg; for Fluc activity in the spleen, compared with CL15F6: versus LNP comprising CL15F6 (Table 7); for Fluc Activity in spleen: FlucmRNA-loaded LNP i.v. 0.1 mg mRNA/kg; for Fluc activity in the spleen, compared with CL4F6: versus LNP comprising CL4F6 (Tables 5 and 6)
Protocol: (§1) Then, each prepared FlucmRNA-loaded lipid nanoparticles were administered to Balb/c mice (Charles River Laboratories Japan, Inc., 7 weeks old, female) and in vivo gene expression activity was examined. Specifically, each FlucmRNA-loaded lipid nanoparticles were intravenously administered to Balb/c mice at 0.1 mg mRNA/kg, and Fluc activities in the liver and spleen at 6 hours later were measured. Fluc activity was measured by in vivo imaging system (Perkin Elmer, IVIS200) after administration of VivoGlo Luciferin, In Vivo Grade (Promega, P1041) dissolved with PBS to 15 mg/mL, via tail vein at a dose of 1.5 mg per mouse. The unit of Fluc activity is the emission intensity per unit area (Avg Radiance [p/s/cm2/sr]) at the maximum emission wavelength of about 560 nm. The results of measurement of the Fluc activity (Avg Radiance [p/s/cm2/sr]) in the liver and spleen of mice administered each FlucmRNA-loaded lipid nanoparticles are shown in Tables 5-7.

F7 = test: In vivo F7 knockdown, plasma F7 enzyme activity (BIOPHEN FVII), Balb/c mice; conditions: i.v. 0.025 mg siRNA/kg, plasma at 24 hours, relative plasma F7 activity of MC3 LNP as 1
Protocol: Then, each prepared F7siRNA-loaded lipid nanoparticles were administered to Balb/c mice (Charles River Laboratories Japan, Inc., 5 weeks old, female) and in vivo F7 knockdown activity was examined. Specifically, BALB/c mice were intravenously administered F7siRNA-loaded lipid nanoparticles comprising the lipids described in Table 9 at 0.025 mg siRNA/kg and F7siRNA-loaded lipid nanoparticles comprising the lipids described in Tables 10 and 11 at 0.025 mg siRNA/kg, and the plasma F7 enzyme activity at 24 hours later was measured using BIOPHEN FVII (Biophen, A221304). Relative plasma F7 enzyme activity (%) of mice administered each F7siRNA-loaded lipid nanoparticles was calculated using plasma F7 enzyme activity of untreated mice as 100%. Furthermore, the ratio was calculated using the relative plasma F7 enzyme activity (%) of mice administered MC3-comprising F7siRNA-loaded lipid nanoparticles as 1. The results of measurement of CL4F6 derivative nanoparticles are shown in Tables 9 and 10, and results of measurement of CL15F6 derivative nanoparticles in Table 11.

[1] = Storage stability of FlucmRNA-loaded LNP at −80, 5, 25 and 40° C.; format: physicochemical; conditions: for period for which quality remained good, −80° C.: maximum storage period 1 week; for quality at production (storage stability criteria): criteria: PDI 0.2 or less, encapsulation 80% or more
Protocol: Lipid nanoparticles were allowed to stand at each temperature of −80° C., 5° C., 25° C., and 40° C., and after keeping for each period of time, average particle size, PDI, and nucleic acid encapsulation rate were measured. Lipid nanoparticles which satisfy following all three conditions were defined that the quality was remained well: the average particle size is maintained within +/−20 nm based on the date of LNP preparation; PDI remains high uniformity with a value of 0.2 or less; and the nucleic acid encapsulation rate is also maintained at 80% or more. As a result of measuring average particle size, PDI, and nucleic acid encapsulation rate after each FlucmRNA-loaded lipid nanoparticle was allowed to stand at −80° C., 5° C., 25° C., and 40° C. respectively and kept for each period of time, periods of time defined as the quality of the lipid nanoparticles was remained well are shown in Tables 13 and 14. The lipid nanoparticles which remain in good quality with standing at 5° C. for one week or more can be evaluated as having excellent stability.

[2] = Average particle size (ζ-Average) and PDI by dynamic light scattering (Zetasizer Nano ZSP); format: physicochemical
Protocol: The average particle size (ζ-Average) and PDI in PBS(−) of lipid nanoparticles were measured using “Zetasizer Nano ZSP”, an analyzer utilizing dynamic light scattering (manufactured by Malvern).
Measurement of average particle size and PDI of the lipid nanoparticles were carried out with the same method as the measurement of average particle size of mRNA-LNP.
The average particle size (ζ-Average) and PDI in PBS (−) of lipid nanoparticles were measured using “Zetasizer Nano ZSP”, an analyzer utilizing dynamic light scattering (manufactured by Malvern).

liver = test: In vivo Fluc activity of FlucmRNA-loaded LNP by in vivo imaging, liver; conditions: Balb/c mice, 6 hours; for Fluc Activity in liver: FlucmRNA-loaded LNP i.v. 0.1 mg mRNA/kg
Protocol: as §1

[3] = siRNA/mRNA encapsulation rate by Ribogreen reagent (section IV); format: physicochemical; conditions: for % siRNA encapsulation: F7siRNA-loaded LNP, 50:10:38.5:1.5, N/P ratio 6; for % mRNA encapsulation: FlucmRNA-loaded LNP, 50:10:38.5:1.5
Protocol: The encapsulation rates of siRNA and mRNA of lipid nanoparticles were measured with Ribogreen reagent. A solution diluted with TE buffer solution was arranged so that lipid nanoparticle concentration as nucleic acid concentration to be 8 μg/mL, as a solution for measuring nanoparticle surface nucleic acid concentration. In addition, a solution for measuring total nucleic acid concentration was arranged so that lipid nanoparticle concentration as nucleic acid concentration to be 1.2 μg/mL, which is 1% (w/w) concentration of X-triton100, by adding X-triton100. For 100 μL of each solution, 100 μL of Ribogreen (registered trademark) reagent (Quant-iT™ RiboGreen™ RNA Reagent, manufactured by Thermofisher Scientific) was mixed well in the wells of 96-well microplate (black, made of polystyrene, flat bottom, manufactured by Corning), and the fluorescence intensity at an excitation wavelength of 485 nm and a measurement wavelength of 528 nm was measured with a microplate reader. Nucleic acid concentration was calculated by calibration curve created by measuring the fluorescence intensity of nucleic acid solution containing 1% X-triton100 (nucleic acid concentration: 0-2.5 μg/mL) as same as aforementioned. Nucleic acid encapsulation rate of each lipid nanoparticle was calculated by the following formula: Encapsulation rate %=(nucleic acid concentration in solution for measuring total nucleic acid concentration (μg/mL)−nucleic acid concentration in solution for measuring nanoparticle surface nucleic acid concentration (μg/mL))/nucleic acid concentration in solution for measuring total nucleic acid concentration (μg/mL)×100. <Results>
The encapsulation rate of mRNA of lipid nanoparticles was measured using Ribogreen (manufactured by life technologies).

[4] = F7siRNA-loaded LNP, 50:10:38.5:1.5, N/P ratio 6
[5] = FlucmRNA-loaded LNP, 50:10:38.5:1.5
[6] = FlucmRNA-loaded LNP, lipid:DSPC:cholesterol:DMG-PEG2K 50:10:38.5:1.5

period for which quality remained good, −80° C. [1]	period for which quality remained good, 5° C. ([1]; maximum storage period 5 weeks)	period for which quality remained good, 25° C. ([1]; maximum storage period 5 weeks)	period for which quality remained good, 40° C. (weeks) ([1]; maximum storage period 5 weeks)	PDI [2, 4]	ζ-Average (nm) [2, 4]	PDI [2, 5]	ζ-Average (nm) [2, 6]	% siRNA encapsulation [3]	% mRNA encapsulation [3]	period for which quality remained good, 40° C. ([1]; maximum storage period 5 weeks)	period for which quality remained good, 40° C. (days) ([1]; maximum storage period 5 weeks)	Compound	Fluc activity in the spleen, compared with CL15F6 (spleen)	Fluc Activity in spleen (spleen)	F7 enzyme activity (Ratio using MC3 as 1) (F7)	Fluc activity in the liver, compared with CL15F6 (liver; 0.1 mg mRNA/kg, versus LNP comprising CL15F6 (Table 7))	Fluc Activity in liver (liver)	quality at production (storage stability criteria) [1]	Fluc activity in the spleen, compared with CL4F6 (spleen)
1 week	5 weeks	5 weeks	5 weeks	0.13	143.9 nm	0.117	158.90 nm	100.2%	95.70%			CCCCCCCCCCCCC(CC)C(=O)OCCCCCCC(O)(CCCCCCOC(=O)C(CC)CCCCCCCCCCCC)CCCCOC(=O)C1CCN(C)CC1 (stereo not shown) [CL15F 14-2]	higher Fluc activity	7.58E+06 Avg Radiance [p/s/cm2/sr]	1.82	higher Fluc activity	1.03E+07 Avg Radiance [p/s/cm2/sr]		
0 week	5 weeks	5 weeks	1 week weeks			0.032	113.50 nm		98.8%			CCCCCC(CCCC)C(=O)OCCCCCCC(O)(CCCCCCOC(=O)C(CCCC)CCCCC)CCCCN(CCC)CCC (stereo not shown) [CL4F 7-4]		7.43E+06 Avg Radiance [p/s/cm2/sr]			5.05E+06 Avg Radiance [p/s/cm2/sr]		higher Fluc activity
1 week	5 weeks	5 weeks	1 week weeks			0.002	95.29 nm		99.1%			CCCCCCCC(CCCC)C(=O)OCCCCCCC(O)(CCCCCCOC(=O)C(CCCC)CCCCCCC)CCCCN(CCC)CCC (stereo not shown) [CL4F 9-4]		8.69E+06 Avg Radiance [p/s/cm2/sr]			2.55E+07 Avg Radiance [p/s/cm2/sr]		higher Fluc activity

Continued, compound first:

Compound	period for which quality remained good, −80° C. [1]	period for which quality remained good, 5° C. ([1]; maximum storage period 5 weeks)	period for which quality remained good, 25° C. ([1]; maximum storage period 5 weeks)	period for which quality remained good, 40° C. (weeks) ([1]; maximum storage period 5 weeks)	PDI [2, 4]	ζ-Average (nm) [2, 4]	PDI [2, 5]	ζ-Average (nm) [2, 6]	% siRNA encapsulation [3]	% mRNA encapsulation [3]	period for which quality remained good, 40° C. ([1]; maximum storage period 5 weeks)	period for which quality remained good, 40° C. (days) ([1]; maximum storage period 5 weeks)	Fluc activity in the spleen, compared with CL15F6 (spleen)	Fluc Activity in spleen (spleen)	F7 enzyme activity (Ratio using MC3 as 1) (F7)	Fluc activity in the liver, compared with CL15F6 (liver; 0.1 mg mRNA/kg, versus LNP comprising CL15F6 (Table 7))	Fluc Activity in liver (liver)	quality at production (storage stability criteria) [1]	Fluc activity in the spleen, compared with CL4F6 (spleen)
CCCCCCCC(CCCCC)C(=O)OCCCCCCC(O)(CCCCCCOC(=O)C(CCCCC)CCCCCCC)CCCCOC(=O)C1CCN(C)CC1 (stereo not shown) [CL15F 9-5]	1 week	5 weeks	5 weeks	5 weeks	0.035	129.5 nm	0.037	135.00 nm	100.1%	99.1%			higher Fluc activity	5.77E+06 Avg Radiance [p/s/cm2/sr]	1.11		1.86E+06 Avg Radiance [p/s/cm2/sr]		
CCCCC(CCCC)C(=O)OCCCCCCC(O)(CCCCCCOC(=O)C(CCCC)CCCC)CCCCN(CCC)CCC [CL4F 6-4]	0 week	5 weeks	5 weeks				0.023	141.10 nm		97.2%	3 days			2.95E+05 Avg Radiance [p/s/cm2/sr]			2.17E+05 Avg Radiance [p/s/cm2/sr]		
CCCCCCCCCCCCCCCC(=O)OCCCCCCC(O)(CCCCCCOC(=O)CCCCCCCCCCCCCCC)CCCCN(CCC)CCC [CL4F 16-0]							0.225	158.30 nm		86.2%				2.83E+05 Avg Radiance [p/s/cm2/sr]			2.32E+04 Avg Radiance [p/s/cm2/sr]	Does not meet the criteria for “good” at production	
7-hydroxy-7-(4-((1-methylpiperidine-4-carbonyl)oxy)butyl)tridecan-1,13-diyl bis(2-(4,4-dimethylpentan-2-yl)-5,7,7-trimethyloctanoate [CL15G6]	1 week	5 weeks	5 weeks	5 weeks															
CCCCCC(CCC)C(=O)OCCCCCCC(O)(CCCCCCOC(=O)C(CCC)CCCCC)CCCCN(CCC)CCC (stereo not shown) [CL4F 7-3]	0 week	5 weeks	5 weeks				0.025	133.90 nm		98.1%		0 day days		6.64E+05 Avg Radiance [p/s/cm2/sr]			3.43E+05 Avg Radiance [p/s/cm2/sr]		
CCCCCCCC(CCCCCC)C(=O)OCCCCCCC(O)(CCCCCCOC(=O)C(CCCCCC)CCCCCCC)CCCCN(CCC)CCC (stereo not shown) [CL4F 9-6]	1 week	5 weeks	5 weeks	5 weeks			0.021	89.18 nm		99.1%				3.89E+06 Avg Radiance [p/s/cm2/sr]			9.61E+07 Avg Radiance [p/s/cm2/sr]		
CCCCC(CC)C(=O)OCCCCCCC(O)(CCCCCCOC(=O)C(CC)CCCC)CCCCOC(=O)C1CCN(C)CC1 (stereo not shown) [CL15F 6-2]					0.534	390.7 nm			100.4%						1.87			Does not meet the criteria for “good” at production	

Reference: US12458605B2, “Lipid nanoparticle” (National University Corporation Hokkaido University, priority 2020, dated 2025)
